Consider one substance from paper PMC6349357, “Computational and experimental analysis of bioactive peptide linear motifs in the integrin adhesome” (PLoS ONE, 2019).

Marks after values point to notes of the source that are not given here.

Test [1] deals with TRAP-activated platelets. Kind of test: Inhibition of TRAP-induced platelet aggregation after pre-incubation with peptide. The test is classed as cell-based, human (healthy volunteers). The method, boiled down:
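Washed human platelets (from ACD blood, PGE1-treated) were used at 3x10^5/μl in buffer A pH 7.4 with 1.8 mM CaCl2. Light-transmission aggregometry ran at 37°C with stirring at 1100 rpm. Peptide or buffer was added at 2 min, TRAP 6 min later, and aggregation was recorded for a further 7 min.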

For test [2], the system named is tyrosine phosphorylation in platelets. Nature of the test: Phosphotyrosine western blot (4G10) of platelets treated with peptide. The test is classed as cell-based, human (healthy volunteers). The arrangement: key to Phospho: R: in resting platelets; A: after TRAP activation. The following applies: phosphorylation changes associated with peptide treatment; pal 20 μM, tat 50 μM, TRAP 4 μM. On the procedure:
A platelet concentration of 3x10^5 /μl was used when performing standard aggregations and a concentration of 1x10^6 /μl was used for sample preparation for western blot analysis. The extent of platelet aggregation was measured by quantifying the optical density of the samples using the Bio-Data PAP-8 aggregometer (platelet aggregation profiler, Horsham, PA, USA). A temperature of 37°C was maintained and samples were stirred using magnets spinning at 1100 rpm. 200 μl of washed platelets was added to each aggregation tube. Different volumes of buffer, peptide and TRAP were added to achieve the desired concentrations. Peptide/buffer was added to each well after two minutes. TRAP, with a final concentration depending on the experiment, was added 6 minutes later and data was collected for an additional 7 minutes.
After the aggregation step, tubes were immediately placed on ice. 27 μl of lysis buffer was then added and the tube was vortexed vigorously. Lysates were left on ice for one hour and vortexed frequently. Proteins were then centrifuged at 14,000 rcf for 10 minutes to remove debris. Samples were then mixed with 2x sample buffer. 50 μl each sample was added to 50 μl of sample buffer. The protein was then denatured by heating to 95°C for 5 minutes. 10 μl of lysate was kept for protein quantification. All samples and lysates were frozen at -80°C.
The Bradford assay was then performed on the lysates to determine protein concentration. Protein concentrations were measured using the Bio-Rad DC Protein Assay. A calibration was created using samples containing a known concentration of bovine serum albumin. These were prepared in advance by sequential dilutions with final concentrations of 1.5mg/ml, 1mg/ml, 0.8mg/ml, 0.6mg/ml, 0.4mg/ml, 0.2mg/ml, 0mg/ml. Samples were then dispensed into a 96 well plate and the Bio-Rad DC reagents were added as described in the protocol. Samples were left to rest for 15 minutes and were then read using 690 0.15 mode on the Wallac plate reader. A standard curve was calculated from the standard samples of known concentration and the y = ax+b equation was used to determine the concentration of the other samples.
Sodium Dodecyl Sulfate Polyacrylamide Gel Electrophoresis (SDS-PAGE) was performed to separate proteins by molecular weight. Polyacrylamide gels were prepared (see Reagents section). Samples or molecular markers were loaded in volumes to give 20 μg of protein. The gels were then run for approximately 80 minutes or until the samples reached the end of the gel. The proteins were then transferred to polyvinylidene difluoride (PVDF) membranes using a Bio-Rad Wet Blot Transfer Cell apparatus. During the transfer the membranes were submerged in 1x transfer buffer (10% 10x transfer buffer, 70% deionised water and 20% methanol). Transfer was performed either overnight at 40 volts at 4°C, or at 100 volts for 1 hour cooled with an ice block. After the transfer the membranes were blocked for 1 hour using 3% bovine albumin serum (BSA) dissolved in TBS-T. Membranes were incubated with 4G10 antibody with a 1:1000 dilution. Unbound primary antibody was washed off with TBS-T three times for 5 minutes each. Membranes were then incubated with anti-mouse IgG secondary antibody (Millipore) with a dilution of 1:30,000. Membranes were submerged in chemiluminescence ECL solution (Thermo Scientific). They were then measured using the western blot developer UVP. One image was taken every 80 seconds for 40 minutes. Numeric data was extracted from selected blots using ImageJ.
In general terms: A western blot detects proteins with antibodies after separation by electrophoresis.

The target in test [3] is T1, paxillin in HeLa cells (Homo sapiens, UniProt P49023).
T1 construct: endogenous in cells; host or cells: HeLa
T1 sequence (P49023 whole entry): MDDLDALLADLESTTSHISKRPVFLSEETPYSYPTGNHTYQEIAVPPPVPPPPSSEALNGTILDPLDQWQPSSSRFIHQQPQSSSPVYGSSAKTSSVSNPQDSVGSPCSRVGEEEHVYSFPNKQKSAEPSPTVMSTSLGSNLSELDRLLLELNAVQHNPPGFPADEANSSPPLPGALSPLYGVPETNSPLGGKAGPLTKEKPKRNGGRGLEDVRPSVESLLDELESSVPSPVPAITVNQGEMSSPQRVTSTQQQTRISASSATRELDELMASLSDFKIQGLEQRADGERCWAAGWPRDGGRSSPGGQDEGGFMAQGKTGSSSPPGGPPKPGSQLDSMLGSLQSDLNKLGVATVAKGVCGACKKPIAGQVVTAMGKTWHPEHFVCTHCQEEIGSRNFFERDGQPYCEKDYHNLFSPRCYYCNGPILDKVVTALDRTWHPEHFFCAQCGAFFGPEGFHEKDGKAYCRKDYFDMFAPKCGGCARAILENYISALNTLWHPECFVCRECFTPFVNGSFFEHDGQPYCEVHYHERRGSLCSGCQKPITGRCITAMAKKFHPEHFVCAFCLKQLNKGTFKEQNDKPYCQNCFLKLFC
Nature of the test: Co-localization of 5FAM-labeled peptide with paxillin in HeLa cells (microscopy). The test is classed as cell-based. The following applies: 15 μM, 5-15 minutes. On the procedure: HeLa cells were seeded on a 24-well plate with inserted coverslips at a density of 30000 cells/well. After 24h the cells were treated with 15 μM peptide for the desired amount of time (5, 10, 15 minutes). Cells were then fixed in 3% paraformaldehyde (PFA, Sigma) for 20 minutes and permeabilized with 0.1% Triton X-100 (Sigma) for 5 minutes at room temperature. Cells were then washed 3 times with PBS and stained with antibodies. Staining with primary antibody (paxillin/vinculin (Abcam)) was performed for 30 minutes, followed by three PBS washes and secondary staining using goat anti-mouse Alexa 568 antibody (Life Technologies) for 30 minutes. Then the nuclei were stained with 0.2 μg/ml Hoechst33342, the coverslips were thoroughly washed with PBS and mounted on glass slides with Mowiol mounting medium. The slides were then imaged on a FluoView FV1000 laser scanning microscope (Olympus) with 60x UPLSAPO 1.35NA (Olympus) oil immersion objective.

“tat-WEQLLTTIARTINEVENQI-(NH2) [tat-ACTN1_VBS]”: the “Aggregation after TRAP, peptide alone 1x (A 1x / B 1x)” value in test [1] (TRAP 2 μM after 6 minutes pre-incubation, 4 μM pal-peptides, 10 μM tat-peptides, mean n = 3) turned out to be 68.33. For the same substance, the “Aggregation after TRAP, peptide alone 2x (A 2x / B 2x)” value in test [1] (TRAP 2 μM after 6 minutes pre-incubation, double concentration of 4 μM (pal) / 10 μM (tat), mean n = 3) was found to be 68.67. Besides, the “Platelet aggregation after TRAP activation” value in test [1] (platelet aggregation induced by 4 μM TRAP in platelets pre-incubated with peptide (low value = inhibition), pal-peptides 20 μM, tat-peptides 50 μM, mean, n>=3) is listed as 61 ^*. For the same substance, the “Aggregation after TRAP activation, donor e” value in test [1] (replicate donor e, TRAP 4 μM, pal 20 μM, tat 50 μM) stood at 66. The “Aggregation after TRAP activation, donor k” value in test [1] (replicate donor k, TRAP 4 μM, pal 20 μM, tat 50 μM) came to 51. Also, the “Aggregation after TRAP activation, donor l” value in test [1] (replicate donor l, TRAP 4 μM, pal 20 μM, tat 50 μM) is on record as 68. Also, the Phospho entry in test [2] is recorded as “R”. Moreover, the Co-localization with paxillin result in test [3] is reported as “did not co-localize”.
